Consider eleven compounds from patent publication EP0292169B1, “Substrates for B-galactosidase” (Bayer Corporation, priority 1987, dated 1988).

Like-named read-outs stand apart in the source and are kept apart here.

Data set [1] is described as follows: Molar absorptivity of phenolic precursors of substrates. The data set is classed as physicochemical. As for the experimental part: The molar absorptivity (εmax) of the phenolic precursors of several substrates of this invention were measured and calculated according to the following formula: [formula] wherein A is the absorbance; b is the path length through the sample; and c is the concentration of solute.
The molar absorptivity of the phenolic precursor of ONPG, the most commonly used prior art substrate for β-galactosidase was likewise measured and calculated for comparative purposes. The aim was to identify phenolic precursors which would provide enhanced molar absorptivity to that of ONPG.

A short description of data set [2]: Stability in aqueous environment. The data set is classed as physicochemical.
The target in data set [3] is T1, β-galactosidase (Escherichia coli, UniProt P00722). Conditions: available from the literature, cited from earlier work.
T1 sequence (P00722 2-1024): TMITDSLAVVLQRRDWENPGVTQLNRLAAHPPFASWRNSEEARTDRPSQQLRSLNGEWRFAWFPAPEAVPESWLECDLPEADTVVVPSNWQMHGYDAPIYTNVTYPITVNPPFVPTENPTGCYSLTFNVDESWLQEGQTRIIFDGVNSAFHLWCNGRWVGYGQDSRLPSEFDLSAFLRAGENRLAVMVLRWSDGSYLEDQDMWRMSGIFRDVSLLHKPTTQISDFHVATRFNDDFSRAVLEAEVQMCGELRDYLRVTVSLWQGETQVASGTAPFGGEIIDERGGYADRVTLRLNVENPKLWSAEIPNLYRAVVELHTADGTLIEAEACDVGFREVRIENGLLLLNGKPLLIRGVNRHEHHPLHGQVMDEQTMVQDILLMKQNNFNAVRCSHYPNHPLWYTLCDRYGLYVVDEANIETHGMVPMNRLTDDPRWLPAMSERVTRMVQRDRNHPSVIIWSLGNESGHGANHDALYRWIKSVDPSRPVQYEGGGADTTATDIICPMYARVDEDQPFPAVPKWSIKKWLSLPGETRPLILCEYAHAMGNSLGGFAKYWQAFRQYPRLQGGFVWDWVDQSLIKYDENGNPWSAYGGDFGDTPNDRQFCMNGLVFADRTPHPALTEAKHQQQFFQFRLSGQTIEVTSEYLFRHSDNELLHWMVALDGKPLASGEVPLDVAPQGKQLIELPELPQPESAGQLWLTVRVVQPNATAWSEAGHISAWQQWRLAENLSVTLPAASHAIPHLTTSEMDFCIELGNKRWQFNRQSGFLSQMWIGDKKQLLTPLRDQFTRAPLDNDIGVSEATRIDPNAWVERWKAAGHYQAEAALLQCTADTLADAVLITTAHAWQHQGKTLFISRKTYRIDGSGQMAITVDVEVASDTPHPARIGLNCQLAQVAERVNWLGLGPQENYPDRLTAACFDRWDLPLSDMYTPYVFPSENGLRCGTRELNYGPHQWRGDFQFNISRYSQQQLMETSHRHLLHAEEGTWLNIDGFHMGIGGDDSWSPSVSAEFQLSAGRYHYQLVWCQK
Data set [4] has as its target T1, β-galactosidase. The format is biochemical. Conditions: for V max / Km: calculated from experimental data of Figs. 1 and 2.
Data set [5] has as its target T1, β-galactosidase. The data set is classed as biochemical. Conditions: antibody titration curve, Fig. 3.

With `O=[N+]([O-])c1ccc(O)c([N+](=O)[O-])c1` [DNP, 2,4-dinitro phenol], the “Molar Absorptivity (εmax)” value in data set [1] (pH 7.5) is reported as 10.7 (405 nm, pH 7.5). A word on the Km: it is the substrate concentration at which the rate is half of its maximum. Turning to `O=[N+]([O-])c1ccc(O[C@@H]2O[C@H](CO)[C@H](O)[C@H](O)[C@H]2O)c([N+](=O)[O-])c1` [DNPG, 2,4-dinitro-phenyl-β-D-galactopyranoside], the “stability in aqueous environment” value in data set [2] is listed as “unstable”. In addition, at β-galactosidase [3], the Km was 220 µM and the V max was 0.13 ΔA/Min. Consider `O=[N+]([O-])c1ccccc1O` [ONP, orthonitro phenol, reference compound], for which the “Molar Absorptivity (εmax)” value in data set [1] (405 nm, pH 7.5) is 3.0 (405 nm, pH 7.5). Consider `Cc1cc(O)ccc1C1(c2ccc(O)cc2C)OS(=O)(=O)c2ccccc21` [metacresol purple], for which the “Molar Absorptivity (εmax)” value in data set [1] (575 nm, pH 8.5) is on record as 8.4 (575 nm, pH 8.5). For `O=[N+]([O-])c1cccc(Cl)c1O` [2-chloro-6-nitrophenol], the “Molar Absorptivity (εmax)” value in data set [1] (405 nm, pH 7.5) is 4.6 (405 nm, pH 7.5). On to `Cc1cc(C2(c3cc(C)c(O)c(Br)c3)OS(=O)(=O)c3ccccc32)cc(Br)c1O` [bromocresol purple], for which, in data set [1] (585 nm, pH 8.5), the “Molar Absorptivity (εmax)” value is reported as 50.7 (585 nm, pH 8.5). In the case of `O=[N+]([O-])c1ccccc1O[C@@H]1O[C@H](CO)[C@H](O)[C@H](O)[C@H]1O` [ONPG, O-nitrophenyl-β-D-galactopyranoside], the V max on β-galactosidase [3] was 0.03 ΔA/Min. Further, at β-galactosidase [3] (read-out: Km), the Michaelis-Menten constant (Km) was 170 µM. Regarding “bromocresol purple-β-D-galactopyranoside [BCPG, reference compound]”, at β-galactosidase [4], the V max is on record as 0.11 ΔA/Min. Moreover, on β-galactosidase [4] (read-out: Km), the Michaelis-Menten constant (Km) is 8000 µM.

Consider `O=[N+]([O-])c1ccc(O)c(Cl)c1` [CLNP, 2-chloro-4-nitrophenol], for which, in data set [1] (405 nm, pH 7.5), the “Molar Absorptivity (εmax)” value is reported as 16.9 (405 nm, pH 7.5). On the same count and under the same terms, in the case of `O=[N+]([O-])c1cc(Cl)c(O)c(Cl)c1` [2,6-dichloro-4-nitrophenol] it was 15.9 (405 nm, pH 7.5). As to `O=[N+]([O-])c1ccc(O[C@@H]2O[C@H](CO)[C@H](O)[C@H](O)[C@H]2O)c(Cl)c1` [CLNPG, 2-chloro-4-nitrophenyl-β-D-galactopyranoside], the “V max relative to that of ONPG” value on β-galactosidase [4] (CLNPG versus ONPG) is “at least four times”. On β-galactosidase [4], the Km is 200 µM and the V max is given as 0.13 ΔA/Min. The “increase in assay sensitivity over ONPG” value at β-galactosidase [5] is on record as “four-fold”.
